Measurements as given in patent US20120040976A1, “SMALL MOLECULE IMMUNOMODULATORS FOR ALZHEIMER'S DISEASE” (HUMAN BIOMOLECULAR RESEARCH INSTITUTE, priority 2008, published 2012).
In brackets after ≈: the same amount, converted by molar mass.

Key:
[1] = Metabolic stability in human liver microsomes; type: in vitro ADME; settings: human, read-out: Half life, t1/2 HLM
[2] = Metabolic stability in human S9 fraction; type: in vitro ADME; settings: read-out: Half life, t1/2 S9
[3] = Chemical stability (H2O, pH 7.4); type: physicochemical
[4] = Anti-oxidant activity
[5] = Average permeability; type: in vitro ADME; settings: not told
[6] = Average solubility; type: physicochemical
[7] = test system: MGAT3; test: MGAT3 transcription ratio, AD patient / control PBMCs (qPCR); type: cell-based, human; settings: Aβ stimulation
Protocol: (§1) qPCR reactions of cultured monocyte cDNAs. One μL total cellular cDNA per reaction is used in triplicate reactions for each test gene, and for each culture treatment. SYBR-Green reactions were run on a Continuous Fluorescence real-time thermocycler and analyzed. Cycle threshold (Ct) values are recorded for each replicate reaction, and are then averaged and normalized against mean Ct values from one or more control genes. Fold-expression differences relative to untreated cells are determined using the 2^−ΔΔCt method as previously described. Data from the curcumin concentration range are plotted in order to determine EC50 values (concentrations producing one-half maximal stimulant activity), which are used for comparisons of potency between different compounds. Data are also evaluated for each gene with regard to sensitivity, maximally effective concentration of curcuminoid, response to Aβ, and overall magnitude of fold-expression changes.
MGAT3 and/or TLR transcription were tested by qPCR in human monocyte cells treated with curcuminoids and compared the results to those treated with vehicle (Table 7). As discussed above, activation or up-regulation of macrophage MGAT3 or TLR's results in many functional outcomes, including the enhancement of […] and removal of Aβ, increased apoptosis, secretion of inflammatory cytokines, and other anti-AD antimicrobial activities. […] Thus, the ratio of MGAT3 or TLR transcription upon Aβ stimulation of human monocytes versus vehicle treatment provides an indicator and sensitive method to test the in vitro efficacy of drug candidates. […] The relative biological activity of the curcumin analogs in AD patient and control cells was ascertained in the in vitro Aβ assay described above (see Example 2).

[8] = test system: cortical neurons in hAPP-transfected rat brain slices; test: Rat brain slice AD model (hAPP-induced neurodegeneration); type: cell-based; settings: rat brain slices transfected with EYFP and hAPP, three concentrations, 72 hrs (FIG. 8)
Text: A rodent brain slice model for AD has been developed where the expression of human APP by particle-mediated gene transfer (“biolistics”) leads to typical signs of neuronal dystrophy, and ultimately the degeneration and clearance of the cell body with a few days. Brain slice preparations offer a powerful experimental system because they preserve the three-dimensional tissue architecture and local environment of neurons and glia far better than dissociated cell culture. As such, drug lead candidates that show neuroprotective activity in brain-tissue based disease models have a much increased ability to predict efficacy in vivo and ultimately in the clinic.
Preparation of Brain Slice Explants. Cd Sprague-Dawley Rat Pups are Used at Postnatal day 10. Brains are cut into 250 μm coronal slices on a vibratome in chilled medium baths. Approximately 6 such slices can be cut from each rat brain; each are divided into “hemi-coronal” slices which are placed in individual 6-well transwell inserts. […]
Assessment of cortical neuron health. […] Representative images are captured using a digital camera on a fluorescence microscope. After 3 days, cortical neurons are scored. […] Statistical significance of the neuronal counts in compound-treated slices is evaluated by ANOVA analysis, followed by post hoc Dunnett's analysis at the p≦0.05 confidence level. […]

[9] = test system: MGAT3; test: MGAT3 gene expression by qPCR in U-937 human monocytic cells treated with curcumins plus Aβ; type: cell-based; settings: human monocytic cells (U-937), curcumin plus Aβ
Protocol: (§2) Cell culture conditions for monocytic cell lines. Human and mouse monocyte cell lines are grown in RPMI-1640 medium with 10% fetal bovine serum (FBS), plus glutamine and pen/strep. For treatment with compounds (curcuminoids+/−Aβ), replicate sets of 0.5-1.0 mL cultures containing 1-2×10^6 cells are set up in the wells of 48-well tissue culture plates. Both replicate sets have at least one control well receiving no added curcuminoid to provide baseline expression controls for untreated, and Aβ-only treated cells. Remaining wells receive curcuminoid in a range of 10-fold serial dilutions in DMSO, typically from […] Cultures are incubated for 20-24 hours (“overnight”) at 37° C. in atmosphere with 5% CO2. After one overnight, to one of replicate sets of cultures is added Aβ (1-42) peptide to a final concentration of 5 μg/mL.
(§3) RNA isolation and cDNA synthesis. After the first overnight incubation in the presence of curcuminoid, cells from one replicate set of wells are collected by centifugation. RNAs are extracted from pelleted cells using miniprep column kits following manufacturer's protocol for animal cells. […] of total cellular RNA from each well is quantitated using a Nanodrop spectrophotometer, and first-strand total cDNA is prepared from 0.3-1.0 μg RNA by random-hexamer priming. Following the second 20 hr. incubation in the presence of Aβ, RNA extractions and cDNA synthesis are similarly performed.
Assay development. Gene-specific mRNA levels are determined using a real-time thermocycler, and by normalizing to expression of one or more control genes. Assays for quantifying mRNA levels are based on gene sequences reported in NCBI Genbank. PCR oligonucleotide primers are selected spanning introns to minimize the opportunity for amplication from any contaminating genomic DNA in the RNA preps. Oligonucleotides are typically tested and used at a concentration of 200 nM in qPCR reactions containing SYBR dye. Control reactions include template from cDNA synthesis reactions either + or − reverse transcriptase (RT), as well as no-template controls (ntc). […] Melt curves based on incremental 0.5° C. increases are determined for new assays to test for uniformity of amplified products. […]
qPCR reactions of cultured monocyte cDNAs. […] SYBR-Green reactions were run on a Continuous Fluorescence real-time thermocycler and analyzed. Cycle threshold (Ct) values are recorded for each replicate reaction, and are then averaged and normalized against mean Ct values from one or more control genes. Fold-expression differences relative to untreated cells are determined using the 2^−ΔΔCt method as previously described. […] Data are also evaluated for each gene with regard to sensitivity, maximally effective concentration of curcuminoid, response to Aβ, and overall magnitude of fold-expression changes. […]

[10] = test system: TLR2; test: TLR2 gene expression by qPCR in U-937 human monocytic cells treated with curcumins plus Aβ; type: cell-based
Protocol: as §2, §3
(§4) Assay development. Gene-specific mRNA levels are determined using a real-time thermocycler, and by normalizing to expression of one or more control genes. Assays for quantifying mRNA levels are based on gene sequences reported in NCBI Genbank. PCR oligonucleotide primers are selected spanning introns to minimize the opportunity for amplication from any contaminating genomic DNA in the RNA preps. Oligonucleotides are typically tested and used at a concentration of 200 nM in qPCR reactions containing SYBR dye. Control reactions include template from cDNA synthesis reactions either + or − reverse transcriptase (RT), as well as no-template controls (ntc). All reactions are performed in triplicate. Reactions are typically run with 40 cycles of 95° C. (10 sec) and 58° C. (30 sec). Melt curves based on incremental 0.5° C. increases are determined for new assays to test for uniformity of amplified products. Reaction conditions are modified as needed depending on initial test results. ‘Working’ assays are selected based on clear RNA-dependent amplification and absence of product in ‘ntc’ reactions. The following assay primers are used: […]
(§5) qPCR reactions of cultured monocyte cDNAs. One μL total cellular cDNA per reaction is used in triplicate reactions for each test gene, and for each culture treatment. SYBR-Green reactions were run on a Continuous Fluorescence real-time thermocycler and analyzed. Cycle threshold (Ct) values are recorded for each replicate reaction, and are then averaged and normalized against mean Ct values from one or more control genes. Fold-expression differences relative to untreated cells are determined using the 2^−ΔΔCt method as previously described. […] Data are also evaluated for each gene with regard to sensitivity, maximally effective concentration of curcuminoid, response to Aβ, and overall magnitude of fold-expression changes. […]

[11] = test system: TLR3; test: TLR3 gene expression by qPCR in U-937 human monocytic cells treated with curcumins plus Aβ; type: cell-based
Protocol: as §2, §3, §4, §1
(§6) Data showing in vitro up-regulation of genes associated with Aβ phagocytosis in response to curcumins. Natural curcumins and synthetic analogs were tested in U-937 human monocyte cells in vitro for their ability to modulate expression of the genes MGAT3 and TLRs −2, −3, and −4. […]

[12] = test system: TLR4; test: TLR4 gene expression by qPCR in U-937 human monocytic cells treated with curcumins plus Aβ; type: cell-based
Protocol: as §2, §3, §4, §5

[13] = test system: VDR; test: VDR gene expression by qPCR in U-937 human monocytic cells treated with curcumins plus Aβ; type: cell-based
Protocol: as §2, §3, §4, §1, §6

[14] = test system: COX-2; test: Inhibition of SOD1-induced COX-2 expression in ALS PBMCs; type: cell-based, human; settings: aggregated wild-type or mutant SOD-1
Text: (§7) More recently, it was shown that PBMCs isolated from ALS patients, and to a lesser extent from control subjects, strongly express COX-2 and other cytokines after stimulation with aggregated wild-type or mutant SOD-1. […] It was also shown that mutant SOD-1 induced polarization of ALS PBMCs to the Th17 type, but the induction was inhibited by 10.

[15] = test system: ALS PBMCs; test: Mutant SOD-1 induced polarization of ALS PBMCs to the Th17 type; type: cell-based, human
Text: as §7

[16] = human monocytic cells (U-937), curcumin plus Aβ

In the case of `COc1cc(/C=C/C(=O)/C=C(O)/C=C/c2ccc(O)c(OC)c2)ccc1O` [Compound 2, 1,7-Bis(4-hydroxy-3-methoxyphenyl)-5-hydroxy-hepta-1,4,6-trien-3-one, reference compound], the half-life [1] is reported as 40.8 min, the half-life [2] is reported as 10.1 min and the half-life ([3]; water (aqueous solution), pH 7.4, read-out: Chemical stability t1/2 pH 7.4 (converted)) is reported as 15.9 min. For the same compound, the half-life ([3]; water, H2O, read-out: Chemical stability t1/2 H2O (converted)) was 73.5 min, the IC50 [4] was 31.7 µM and the Papp [5] was 844 ± 24 ×10⁻⁶ cm/s. The solubility [6] was 9.5 µg/mL (≈ 25.8 µM), the “Relative ratio of MGAT3 transcription in AD patient / control PBMC's” value [7] was “+ ((+) indicates a ratio of 1.0-1.5)” and the “Neuroprotective effect against hAPP-induced neurodegeneration” value [8] was “prevent widespread neurodegeneration in a dose-dependent manner”.
In the case of `CN(C)c1ccc(/C=C/C(O)=C2\CCC/C(=C\c3ccc(N(C)C)cc3)C2=O)cc1` [Compound 10], the “Relative gene expression MGAT3, increased expression relative to control cells” value [9] is reported as “+++ ((+++) >40-fold)”, the “Concentration giving maximal TLR2 expression” value ([10]; U-937, in the presence of Aβ (FIG. 2)) is reported as 1 nM and the “Relative gene expression TLR2, increased expression relative to control cells” value [10, 16] is reported as “++ ((++) >20-fold)”. For the same compound, the “TLR3 expression response (in words)” value ([11]; U-937, plus Aβ (FIG. 3)) was “considerably higher expression”, the “Relative gene expression TLR3, increased expression relative to control cells” value [11, 16] was “+++ ((+++) >40-fold)” and the “Concentration giving maximal TLR4 response” value ([12]; U-937, plus Aβ (FIG. 4)) was “approximately 10 nM”. The “Relative gene expression TLR4, increased expression relative to control cells” value [12, 16] was “+ ((+) <20-fold)”, the VDR expression increase ([13]; human monocytes, plus Aβ (FIG. 5)) was 10^3 fold and the “Relative gene expression VDR, increased expression relative to control cells” value [13, 16] was “+++++ ((+++++) >1000-fold)”. For the same compound, the half-life [1] was 127 min, the half-life [2] was 311 min and the “Chemical stability H2O (stable/unstable)” value ([3]; H2O) was “stable (stability half-lives greater than 5 hours)”. For the same compound, the “Stability compared with BDC (in words)” value ([3]; chemical and metabolic stability) was “markedly greater stability than BDC”, the “Chemical stability pH 7.4 (stable/unstable)” value ([3]; pH 7.4) was “stable (stability half-lives greater than 5 hours)” and the IC50 [4] was 155 µM. The “Induction of COX-2 by SOD-1 after pretreatment” value [14] was “blocked” and the “Induction of Th17 polarization by mutant SOD-1” value [15] was “inhibited”.
